Data on 1 compound can be found in PMC12376128, “In vitro and In Vivo Drug Metabolism Analysis of BPI-460372 - A Covalent TEAD1/3/4 Inhibitor” (Current Drug Metabolism, 2025).

Series [1] deals with rat hepatocytes. Description: Metabolism and metabolite formation in hepatocytes. It is filed as in vitro ADME, SD rat. To be noted: SD rat hepatocytes, 10 µM BPI-460372, 4 h incubation. The text has this: (§1) All the samples were duplicates.
The next series has as its system mouse hepatocytes. The experiment in a line: Metabolism and metabolite formation in hepatocytes. To be noted: ICR mouse hepatocytes, 10 µM BPI-460372, 4 h incubation. The class given is in vitro ADME, ICR mouse.
Source text: as §1

Series [2] can be described thus: Metabolite identification in dog plasma. To be noted: oral 8 mg/kg BPI-460372, average of male and female pooled samples. It is filed as in vivo, beagle dogs. On the procedure:
The plasma samples were acquired from SD rats (n=6, 3 female and 3 male) and beagle dogs (n=6, 3 female and 3 male) after administration of 12 mg/kg and 8 mg/kg of BPI-460372, respectively. The rat urine, feces, and bile samples were acquired in SD rats after administration of 6 mg/kg of BPI-460372.
Equal volume from each rat was pooled together to get 1 male and 1 female 0-24 h plasma samples. An equal percentage by volume of individual urine sample (0-8, 8-24, and 24-48 h) from 3 female and 3 male rats was pooled by time interval across rats, respectively, resulting in two pooled urine samples (1 male and 1 female). An equal percentage by weight of individual feces samples (0-8, 8-24, and 24-48 h) was pooled by time interval across female and male rats, resulting in two pooled fecal samples. An equal percentage by volume of individual bile samples (0-4, 4-8, 8-24, and 24-48 h) was pooled by time interval across female and male rats, resulting in two pooled bile samples. […] Equal volumes from 3 female and 3 male rats were pooled together to get two 0-48 h plasma samples. For blank samples of plasma, urine, and bile, equal volume was pooled across subjects. For a blank sample of feces, equal weight was pooled across rats.
The pooled plasma, feces, and bile samples were extracted by adding 3-fold volume of acetonitrile, and the mixture was vortexed (1 min) and sonicated (1 min) before centrifugation (7220 g, 5 min). The pooled urine samples were centrifuged (7220 g, 5 min). Then the supernatant was transferred into a clean tube and evaporated to dryness under the nitrogen stream. The residues were redissolved with an appropriate volume of acetonitrile/water (20: 80, v: v). After centrifugation, the redissolved solution was transferred into an HPLC vial for UHPLC-Orbitrap-HRMS (15000 g, 10 min, 4°C).

A further series can be described thus: Stability in plasma. It is filed as in vitro ADME. To be noted: dog plasma, 37°C, 4 h.
Another series deals with CYP2C8. Description: Metabolic stability in HLMs with or without specific CYP inhibitor (quercetin). The class given is in vitro ADME, human. To be noted: HLMs 1 mg protein/mL, substrate 1 μM, quercetin 20 µM. On the procedure: Before starting the experiments, the HLMs were thawed gently on ice. Metabolic stability incubations were performed at 37 °C. The incubations contained 100 mM phosphate buffer saline (PBS, pH 7.4), HLMs (1 mg protein·mL^-1), dimethyl sulfoxide (DMSO, blank control) or a selective CYP inhibitor, and BPI-460372 or positive control substrates (final incubation concentration, 1 μM). The incubation process started with the addition of NADPH (1 mM final concentration) after a 5-minute preincubation period. The chemical inhibitors were as follows: a-naphthoflavone (2 µM) for CYP1A2, ticlopidine (20 µM) for 2B6, quercetin (20 µM) for CYP2C8, sulfaphenazole (20 µM) for CYP2C9, ticlopidine (200 µM) for CYP2C19, quinidine (20 µM) for CYP2D6, and ketoconazole (20 µM) for CYP3A [9]. Aliquots were maintained in acetonitrile containing internal standard (IS) at various time points, such as 0 min, 5 min, 10 min, 20 min, 30 min, and 60 min. All incubations were performed in triplicate, and the concentration in the supernatant was determined by liquid chromatography-tandem mass spectrometry (LC-MS/MS).
The elimination rate constant k (min^-1) was obtained by linear regression from the natural logarithm of the […] of the parent drug and the incubation time. The inhibition rate was calculated using equation 1 [10]: […]

Another series deals with TEAD palmitoylation. Set-up: method as in doi:10.1158/1538-7445.AM2023-501. To be noted: cited from earlier work.
In series [3] the test system is rat hepatocytes. Description: in vitro. How it is done: (§2) After mixing, 20 μL of cell suspension was serially transferred into 200 μL of cold acetonitrile containing IS at the time points of 0, 5, 15, 30, 60, and 120 min, respectively.
(§3) The metabolic stability was assessed by measuring the depletion of substrate. The half-life (t1/2), intrinsic clearance (CLint, in virto, µL·min^-1·million cells^-1), whole liver intrinsic clearance (CLint, in vivo, mL·min-1·kg^-1), and in vivo hepatic clearance (CLH, mL·min-1·kg^-1) were calculated following a reported method. In the calculation of CLH, the fraction drug unbound (Fub) was set as 1. The hepatic blood flow, liver weight, and hepatocellularity of five species were used for the calculation of CLint, in vivo [13, 14]. The hepatic extraction ratio (Eh) means the ratio of CLH to hepatic blood flow.

Another series relates to dog hepatocytes. The experiment in a line: in vitro. How it is done:
as §2, §3

For `C=C(F)C(=O)N1CC(n2c(=O)n(-c3ccc(C(F)(F)F)cc3)c3nccnc32)C1` [BPI-460372], the “UV (314 nm) Peak Areas Relative Abundance” value in the series with rat hepatocytes [1] came out at 70.87%; in the series on mouse hepatocytes, 32.74%. Besides, the “Relative abundance of MS peak areas, Dog Plasma 0-48 h” value in series [2] is on record as 30.93%. The Stability in plasma entry in the series “Stability in plasma” is “stable”. Moreover, the “Inhibition Rate” value in the series with CYP2C8 is recorded as 53.9%. Further, the “Inhibition of the palmitoylation of TEADs” value in the series on TEAD palmitoylation is “inhibit the palmitoylation”. In addition, the CLH is 11.0 mL/min/kg with rat hepatocytes [3] (SD, rat, 1 µM) and 13.8 mL/min/kg in the series on dog hepatocytes (beagle, dog, 1 µM). For the same compound, the Eh is on record as 0.200 in the series on rat hepatocytes [3] (SD, rat, 1 µM) and 0.446 in the series on dog hepatocytes (beagle, dog, 1 µM). Moreover, the “Remaining percentage after 120 min incubation” value was determined as 72.4% with rat hepatocytes [3] (SD, rat, hepatocytes, 2 h, 1 µM) and 66.6% in the series with dog hepatocytes (beagle, dog, hepatocytes, 2 h, 1 µM). The “CLint, in vivo” value in the series with rat hepatocytes [3] (hepatocytes) came to 13.8 mL/min/kg; in the series on dog hepatocytes (hepatocytes), 24.9 mL/min/kg. The “CLint, in virto” value in the series with rat hepatocytes [3] (rat, hepatocytes) is given as 2.941 µL·min^-1·Million cells^-1; in the series on dog hepatocytes (dog, hepatocytes) it was 3.619 µL·min^-1·Million cells^-1. The “Clearance class from Eh” value is recorded as “low clearance” in the series on rat hepatocytes [3] (rat, hepatocytes) and “moderate clearance” in the series on dog hepatocytes (dog, hepatocytes).
